Results from BigSolDB 2.1.

COc1c(N2CCNC(C)C2)c(F)cc2c(=O)c(C(=O)O)cn(C3CC3)c12 (stereo not drawn)
solubility (mole fraction)
Conditions	273.15 K	278.15 K	283.15 K	288.15 K	293.15 K	298.15 K	303.15 K	308.15 K	313.15 K	318.15 K
in 1,4-dioxane	–	–	–	0.000952	0.00111	0.00129	0.00149	0.00172	0.00198	0.00228
in 2-butanone	0.00158	0.00186	0.00219	0.00257	0.003	0.00349	0.00405	0.00468	0.00539	0.0062
in DMF	0.00259	0.00305	0.00359	0.00417	0.00486	0.00566	0.00653	0.00751	0.00864	0.00989
in acetone	0.00081	0.000942	0.00111	0.0013	0.00152	0.00177	0.00204	0.00235	0.0027	0.00309
in acetonitrile	0.0013	0.0015	0.00177	0.00208	0.00244	0.00281	0.00322	0.0037	0.00424	0.00485
in ethanol	0.000261	0.000326	0.000403	0.000489	0.000585	0.000698	0.000829	0.000984	0.00116	0.00136
in ethyl acetate	0.00323	–	–	–	–	–	–	–	–	–
